Tests used:
[1] = target: Beta-2 adrenergic receptor (Canis lupus familiaris) (UniProt P54833); assay: Apparent pA2 value for isoproterenol-induced vasodilation (beta2) evaluated against beta-2 adrenergic receptor in anesthetized dogs
[2] = target: Beta-1 adrenergic receptor (Homo sapiens) (UniProt P08588); conditions: Canis lupus familiaris
Description: Apparent pA2 value for myocardial contractile force (beta-1) evaluated against beta-1 adrenergic receptor in anesthetized dogs

[3] = target: Adrenergic receptor beta; ADRB1 & ADRB2 (Homo sapiens) (UniProt P08588+P07550); conditions: Canis lupus familiaris
Adrenergic receptor beta; ADRB1 & ADRB2 (Homo sapiens), sequence (P07550 whole entry, looked up): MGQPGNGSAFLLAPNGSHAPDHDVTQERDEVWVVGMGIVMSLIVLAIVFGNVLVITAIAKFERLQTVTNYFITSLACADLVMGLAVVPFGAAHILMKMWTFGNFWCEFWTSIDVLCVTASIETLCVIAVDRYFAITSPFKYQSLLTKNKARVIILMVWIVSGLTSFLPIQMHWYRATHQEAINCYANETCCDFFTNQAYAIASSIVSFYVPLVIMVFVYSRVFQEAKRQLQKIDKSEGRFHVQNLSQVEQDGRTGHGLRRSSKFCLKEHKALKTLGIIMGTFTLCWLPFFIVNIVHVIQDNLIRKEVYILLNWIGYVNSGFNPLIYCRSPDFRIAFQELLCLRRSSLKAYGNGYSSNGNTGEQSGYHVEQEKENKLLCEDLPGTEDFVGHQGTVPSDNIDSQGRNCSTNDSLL
Adrenergic receptor beta; ADRB1 & ADRB2 (Homo sapiens), sequence (P08588 whole entry, looked up): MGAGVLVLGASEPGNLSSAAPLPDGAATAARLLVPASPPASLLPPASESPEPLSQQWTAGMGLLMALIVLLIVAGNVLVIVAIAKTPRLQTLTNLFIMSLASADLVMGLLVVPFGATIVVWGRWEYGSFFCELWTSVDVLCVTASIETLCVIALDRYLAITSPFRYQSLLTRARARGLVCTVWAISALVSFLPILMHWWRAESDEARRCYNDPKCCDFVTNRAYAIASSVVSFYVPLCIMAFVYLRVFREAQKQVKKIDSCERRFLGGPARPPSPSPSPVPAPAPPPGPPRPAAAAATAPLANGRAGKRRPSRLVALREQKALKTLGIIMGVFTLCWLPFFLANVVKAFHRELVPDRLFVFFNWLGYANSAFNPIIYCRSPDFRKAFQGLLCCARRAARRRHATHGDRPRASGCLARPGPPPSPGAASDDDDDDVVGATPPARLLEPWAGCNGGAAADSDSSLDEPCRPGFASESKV
Description: Apparent pA2 value for blockade of isoproterenol-induced increase in heart rate evaluated against beta adrenergic receptor in anesthetized dogs

Beta-1 adrenergic receptor (Homo sapiens), sequence (P08588 whole entry, looked up): as above
Beta-2 adrenergic receptor (Canis lupus familiaris), sequence (P54833 whole entry, looked up): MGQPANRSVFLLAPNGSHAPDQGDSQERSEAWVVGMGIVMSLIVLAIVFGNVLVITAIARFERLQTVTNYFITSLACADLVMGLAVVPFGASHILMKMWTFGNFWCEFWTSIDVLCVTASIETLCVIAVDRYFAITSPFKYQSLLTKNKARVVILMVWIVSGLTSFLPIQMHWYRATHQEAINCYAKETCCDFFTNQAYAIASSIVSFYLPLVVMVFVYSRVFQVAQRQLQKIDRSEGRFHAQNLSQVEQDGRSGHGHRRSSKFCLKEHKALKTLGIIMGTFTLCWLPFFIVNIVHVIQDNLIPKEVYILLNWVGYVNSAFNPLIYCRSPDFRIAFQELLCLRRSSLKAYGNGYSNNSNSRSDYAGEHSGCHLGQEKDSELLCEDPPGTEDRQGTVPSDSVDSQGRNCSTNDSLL

Vasodilation [1]: 4.82
Contractile force [2]: 4.75
SMILES: CC(C)NCC(O)COc1ccc(O)c2ccccc12 (stereo not drawn)
Heart rate [3]: 5.12

Source: ChEMBL document CHEMBL1123020
